According to ChEMBL document CHEMBL4834424, “Targeting Chikungunya Virus Replication by Benzoannulene Inhibitors” (J Med Chem, 2021):
Values after ≈ are worked out from the molar mass of the structure shown.

Key:
Chikungunya virus [1] = experiment: (§1) Antiviral activity against CHIKV infected in human NHDF cells assessed as reduction in virus titer in cell supernatant by measuring inhibition of plaque formation using Vero cells at 10 uM pretreated with NHDF cells followed by infected with virus incubated for 24 hrs and measured following infection of supernatants with Vero cells for 48 hrs by plaque based methylene blue dye analysis; type: functional; conditions: time 72 hrs
Chikungunya virus [2] = experiment: as §1, with “cells” for “cells at 10 uM”; type: functional, organism-based
[3] = Cytotoxicity against human NHDF cells assessed as cell viability measured after 24 hrs by Cell Titer Glo luminescent assay; type: cell-based; conditions: NHDF cells
[4] = Aqueous solubility of the compound; type: physicochemical
[5] = Octanol-aqueous buffer distribution coefficient, log D of the compound by LC-MS analysis; type: physicochemical
[6] = Metabolic stability in human liver microsomes assessed as half life in presence of NADPH incubated up to 45 mins by LC-MS/MS analysis; type: ADME, Microsome
[7] = Metabolic stability in mouse liver microsomes assessed as half life in presence of NADPH incubated up to 45 mins by LC-MS/MS analysis; type: ADME, Microsome; design: unit not given here

Compound | log(activity) (Chikungunya virus [1]) | EC50 (Chikungunya virus [2]) | CC50 at 24 h [3] | further results
CCOc1cc2c(cc1NC(=O)c1ccc(C(C)(C)C)cc1)CCC2 | 1 | 6.23 µM | > 30 µM | 
CC(C)(C)c1ccc(C(=O)Nc2cc3c(cc2N)CCCCC3)cc1 | 0 |  | > 30 µM | 
[2H]C([2H])([2H])Oc1cc2c(cc1NC(=O)c1ccc(C(C)(C)C)cc1)CCCCC2 | 23 | 1 µM | > 30 µM | solubility ([4]; aqueous, read-out: solubility): 28 µM (≈ 9.93 µg/mL); logD [5]: 3; half-life [6]: 31 h
CC(C)(C)c1ccc(C(=O)Nc2cc3c(cc2OCc2ccccn2)CCC3)cc1 | 1.2 | 9 µM | > 30 µM | 
CCOc1cc2c(cc1NC(=O)c1ccc(C(C)(C)C)cc1)CCCCC2 | 2.2 | 5.19 µM | > 30 µM | 
COc1cc2c(cc1NC(=O)c1ccc(C(C)(C)C)cc1)CCC2 | <1 |  | > 30 µM | 
CC(C)(C)c1ccc(NC(=O)c2cc3c(cc2OC(F)F)CCCCC3)cc1 | 1.4 |  | > 30 µM | logD [5]: 5; half-life [6]: 70 h; half-life ([7]; liver microsomes): 660
CC(=O)Oc1cc2c(cc1NC(=O)c1ccc(C(C)(C)C)cc1)CCCCC2 | 52 | 2.8 µM | > 30 µM | solubility ([4]; aqueous, read-out: solubility): < 1 µM; logD [5]: 5; half-life [6]: 7 h
COCCOc1cc2c(cc1NC(=O)c1ccc(C(C)(C)C)cc1)CCCCC2 | 0 |  | > 30 µM | 
CC(C)(C)c1ccc(C(=O)Nc2cc3c(cc2[N+](=O)[O-])CCCCC3)cc1 | 0 |  | > 30 µM | 
COc1cc2c(cc1NC(=O)c1ccc(C(C)(C)C)cc1)CCCC(=O)N2 | <1 |  | > 30 µM | 
CCOc1cc2c(cc1C(=O)Nc1ccc(C(C)(C)C)cc1)CCCCC2 | 1.5 | 3.8 µM | > 30 µM | 
CC(C)(C)c1ccc(C(=O)Nc2cc3c(cc2C(F)(F)F)CCCCC3)cc1 | 0 |  | > 30 µM | 
COc1cc2c(cc1NC(=O)c1ccc(C(C)(C)C)cc1)CCCCN2C | <1 |  | > 30 µM | 
COc1cc2c(cc1C(=O)Nc1ccc(-c3cc[nH]n3)cc1)CCCCC2 | 5.9 | 3.4 µM | > 30 µM | 
COc1cc2c(nc1NC(=O)c1ccc(C(C)(C)C)cc1)CCCCC2 | 3.18 | 0.59 µM | > 30 µM | 
COc1cc2c(cc1NC(=O)c1ccc(C(C)(C)CO)cc1)CCCCC2 | 3.1 | 7.12 µM | > 30 µM | 
CC(C)(C)c1ccc(C(=O)Nc2cc3c(cc2OCc2ccccn2)CCCC3)cc1 | 1.1 | 9.1 µM | > 30 µM | 
CCCOc1cc2c(cc1NC(=O)c1ccc(C(C)(C)C)cc1)CCCCC2 | 1 | 7.05 µM | > 30 µM | 
COc1cc2c(cc1NC(=O)c1ccc(C3(O)CCC3)cc1)CCCCC2 | <1 |  | > 30 µM | 
CC(C)(C)c1ccc(C(=O)Nc2cc3c(cc2OC(F)(F)F)CCCCC3)cc1 |  | 3.7 µM | > 30 µM | solubility ([4]; buffer): 8 µM (≈ 3.24 µg/mL); logD [5]: 5; t1/2 ([7]; microsomes, 0.75 h): 127
COc1nc2c(cc1NC(=O)c1ccc(C(C)(C)C)cc1)CCCC2 | 6.7 | 2.3 µM | > 30 µM | 
CCc1cc2c(cc1C(=O)Nc1ccc(C(C)(C)C)cc1)CCCCC2 | 0.2 |  | > 30 µM | 
COc1cc2c(cc1NC(=O)c1ccc(C(C)(C)C)cc1)CCCC(=O)N2C(C)C | 1.7 | 5.1 µM | > 30 µM | 
COc1cc2c(cc1NC(=O)c1ccc(C(C)(C)C)cc1)CCCCN2 | 3.9 | 3.3 µM | > 30 µM | 
COc1cc2c(nc1NC(=O)c1ccc(C(C)(C)C)cc1)CCCC2 | 1.3 |  | > 30 µM | 
